Results reported in ChEMBL document CHEMBL1138304, “New novobiocin analogues as antiproliferative agents in breast cancer cells and potential inhibitors of heat shock protein 90” (J Med Chem, 2007).
Active and inactive are the calls of the source. No cut-off for these calls is given here.

Experiments:
MCF7 [1] = test: Cell cycle arrest in MCF7 cells assessed as accumulation at G2/M phase at 200 uM after 72 hrs by flow cytometry; assay type: functional, Homo sapiens
MCF7 [2] = test: Cell cycle arrest in MCF7 cells assessed as accumulation at G0/G1 phase at 200 uM after 48 hrs by flow cytometry; assay type: functional, Homo sapiens
MCF7 [3] = test: Cell cycle arrest in MCF7 cells assessed as accumulation at subG1 phase at 200 uM after 72 hrs by flow cytometry; assay type: functional, Homo sapiens
MCF7 [4] = test: Cell cycle arrest in MCF7 cells assessed as accumulation at G2/M phase at 200 uM after 48 hrs by flow cytometry; assay type: functional, Homo sapiens
MCF7 [5] = test: Cell cycle arrest in MCF7 cells assessed as accumulation at G0/G1 phase at 200 uM after 72 hrs by flow cytometry; assay type: functional, Homo sapiens
MCF7 [6] = test: Cell cycle arrest in MCF7 cells assessed as accumulation at S phase at 200 uM after 72 hrs by flow cytometry; assay type: functional, Homo sapiens
MCF7 [7] = test: Cell cycle arrest in MCF7 cells assessed as accumulation at S phase at 200 uM after 48 hrs by flow cytometry; assay type: functional, Homo sapiens
MCF7 [8] = test: Cell cycle arrest in MCF7 cells assessed as accumulation at subG1 phase at 200 uM after 48 hrs by flow cytometry; assay type: functional, Homo sapiens
MCF7 [9] = test: Cytotoxicity against MCF7 cells assessed as cell viability at 200 uM after 72 hrs by MTT assay; assay type: functional; conditions: Homo sapiens, MCF7, 72 h; read-out: Activity
MELN [10] = test: Inhibition of basal ER-mediated transcription activity in MELN cells by measuring luciferase activity at 2 uM after 18 hrs; assay type: functional, cell-based; conditions: Homo sapiens
MELN [11] = test: Inhibition of estradiol-induced ER-mediated transcription in MELN cells by measuring luciferase activity at 2 uM after 18 hrs; assay type: functional, cell-based; conditions: Homo sapiens
MELN [12] = test: Inhibition of estradiol-induced ER-mediated transcription in MELN cells by measuring luciferase activity at 200 uM after 18 hrs; assay type: functional, cell-based; conditions: Homo sapiens
MCF7 [13] = test: Growth inhibition of MCF7 cells after 72 hrs by MTT assay; assay type: functional, cell-based; conditions: Homo sapiens, MCF7, 72 h
MCF7 [14] = test: Decrease in Raf1 expression in MCF7 cells at 200 uM after 18 hrs; assay type: functional, cell-based; conditions: Homo sapiens
MCF7 [15] = test: Decrease in HER2 expression in MCF7 cells at 200 uM after 18 hrs; assay type: functional, cell-based; conditions: Homo sapiens
MCF7 [16] = test: Decrease in cdk4 protein level in MCF7 cells at 200 uM after 18 hrs; assay type: functional, cell-based; conditions: Homo sapiens

| Compound | Activity (MCF7 [1]) | Activity (MCF7 [2]) | Activity (MCF7 [3]) | Activity (MCF7 [4]) | Activity (MCF7 [5]) | Activity (MCF7 [6]) | Activity (MCF7 [7]) | Activity (MCF7 [8]) | viability at 200 µM (MCF7 [9]) | Activity (MELN [10]) | Activity (MELN [11]) | Activity (MELN [12]) | IC50 (MCF7 [13]) | Activity (MCF7 [14]) | Activity (MCF7 [15]) | Activity (MCF7 [16]) |
| --- | --- | --- | --- | --- | --- | --- | --- | --- | --- | --- | --- | --- | --- | --- | --- | --- |
| COc1ccc(-c2c(NC(=O)c3ccc4c(c3)CCC(C)(C)O4)c(=O)oc3c(C)c(OC)ccc23)cc1 | 7.7% | 71% | 4% | 11.5% | 81.3% | 9.5% | 15.3% | 3.7% |  |  |  |  |  |  |  |  |
| COc1ccc2c(O)c(NC(=O)c3ccc4c(c3)CCC(C)(C)O4)c(=O)oc2c1C | 6.5% | 71.9% | 2.5% | 10.7% | 85.4% | 8.5% | 16.2% | 3.3% | 75% |  |  |  |  |  |  |  |
| COc1ccc2c(OC)c(NC(=O)c3ccc4c(c3)CCC(C)(C)O4)c(=O)oc2c1C | 7.2% | 56.7% | 3.8% | 11.9% | 77.8% | 14.8% | 28.4% | 7.5% | 75% |  |  |  |  |  |  |  |
| CC1(C)[C@@H](O)CC[C@]2(C)[C@H]3C(=O)C=C4[C@@H]5C[C@@](C)(C(=O)O)CC[C@]5(C)CC[C@@]4(C)[C@]3(C)CC[C@@H]12 |  |  |  |  |  |  |  |  |  | Active | Active |  |  |  |  |  |
| CO[C@@H]1[C@@H](OC(N)=O)[C@@H](O)[C@H](Oc2ccc3c(O)c(NC(=O)c4ccc(O)c(CC=C(C)C)c4)c(=O)oc3c2C)OC1(C)C [NOVOBIOCIN] | 19.3% | 59.9% | 9.8% | 19.3% | 58.3% | 21.3% | 19.7% | 5.9% |  |  |  | Active | 260 µM |  |  |  |
| Cc1ccc(S(=O)(=O)Oc2ccc3c(-c4ccc(Cl)cc4)c(NC(=O)c4ccc5c(c4)CCC(C)(C)O5)c(=O)oc3c2C)cc1 | 7.5% | 70.4% | 4.9% | 9.9% | 74.1% | 17.1% | 19.7% | 3.8% |  |  |  |  |  | Active |  |  |
| COc1ccc(C(=O)Nc2c(OC)c3ccc(OC)c(C)c3oc2=O)cc1CC=C(C)C | 6.9% | 73.3% | 3.8% | 10.8% | 82.1% | 10.2% | 14.4% | 3.6% |  |  |  |  |  |  | Active |  |
| Cc1c(O)ccc2c(O)c(NC(=O)c3ccc4c(c3)CCC(C)(C)O4)c(=O)oc12 [CYCLONOVOBIOCIC ACID] | 18.6% | 46.5% | 6% | 14.4% | 58.1% | 23.4% | 36.2% | 7.7% | 75% |  |  |  |  |  |  | Active |
